This is an account of results in PubChem BioAssay (NCI).

Each structure is given as a SMILES string.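 Five concentrations, 48 hours, 96-well plates. The concentration for full growth arrest is given as TGI.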

One assay relates to HL-60(TB) leukemia. The assay is described as follows: inhibition of tumour cell growth, NCI panel, 48 h.
`NC1=NS(=O)(=O)Nc2nc(-c3ccc([N+](=O)[O-])o3)[nH]c21` showed a TGI of 4.93 µM.
Turning to `CN(C)C(=S)/N=c1\ss/c(=N\C(=S)N(C)C)n1-c1ccc(Cl)c(Cl)c1`, the TGI is more than 100 µM.

In another assay the test system is HOP-18 NSCLC. The assay is described as follows: inhibition of tumour cell growth, NCI panel, 48 h.
In turn, `NC1=NS(=O)(=O)Nc2nc(-c3ccc([N+](=O)[O-])o3)[nH]c21` showed a TGI of 30.3 µM.

The next assay concerns HOP-62 NSCLC. The assay is described as follows: inhibition of tumour cell growth, NCI panel, 48 h.
As to `O=C1Nc2c(ccc(Cl)c2I)C1=O`, the TGI was 48.3 µM.
Same read-out and setting: as for `NC1=NS(=O)(=O)Nc2nc(-c3ccc([N+](=O)[O-])o3)[nH]c21`, the figure is 32.4 µM; as for `CN(C)C(=S)/N=c1\ss/c(=N\C(=S)N(C)C)n1-c1ccc(Cl)c(Cl)c1`, more than 100 µM; as for `COc1cc2cccc(N=Cc3cccc(OC)c3OC(C)C)c2cc1OC`, 80.3 µM.

The subject of a further assay is HOP-92 NSCLC. The assay is described as follows: inhibition of tumour cell growth, NCI panel, 48 h.
Consider `NC1=NS(=O)(=O)Nc2nc(-c3ccc([N+](=O)[O-])o3)[nH]c21`, for which the TGI is 27.1 µM.

The next assay deals with HT29 colon. Put plainly: inhibition of tumour cell growth, NCI panel, 48 h.
Compound `O=C1Nc2c(ccc(Cl)c2I)C1=O` came in with a TGI of more than 100 µM.
As to `NC1=NS(=O)(=O)Nc2nc(-c3ccc([N+](=O)[O-])o3)[nH]c21`, the TGI is 42.4 µM.
Consider `CN(C)C(=S)/N=c1\ss/c(=N\C(=S)N(C)C)n1-c1ccc(Cl)c(Cl)c1`, for which the TGI is more than 100 µM.
`COc1cc2cccc(N=Cc3cccc(OC)c3OC(C)C)c2cc1OC` yielded a TGI of 50.2 µM.

A further assay has as its system IGROV1 ovarian. The assay is described as follows: inhibition of tumour cell growth, NCI panel, 48 h.
For the compound `O=C1Nc2c(ccc(Cl)c2I)C1=O`, the TGI was determined as 30.7 µM.
For the compound `NC1=NS(=O)(=O)Nc2nc(-c3ccc([N+](=O)[O-])o3)[nH]c21`, the TGI came to 31.5 µM.
Still for that read-out and setting: as for `CN(C)C(=S)/N=c1\ss/c(=N\C(=S)N(C)C)n1-c1ccc(Cl)c(Cl)c1`, the figure is more than 100 µM; as for `COc1cc2cccc(N=Cc3cccc(OC)c3OC(C)C)c2cc1OC`, 70.2 µM.

Another assay deals with K-562 leukemia. Put plainly: inhibition of tumour cell growth, NCI panel, 48 h.
`O=C1Nc2c(ccc(Cl)c2I)C1=O` gave a TGI of 73.2 µM.
In the case of `NC1=NS(=O)(=O)Nc2nc(-c3ccc([N+](=O)[O-])o3)[nH]c21`, the TGI was 22.9 µM.
On the same count and under the same terms, to `CN(C)C(=S)/N=c1\ss/c(=N\C(=S)N(C)C)n1-c1ccc(Cl)c(Cl)c1` belongs more than 100 µM; to `COc1cc2cccc(N=Cc3cccc(OC)c3OC(C)C)c2cc1OC`, 89 µM.

The test system of another assay is KM12 colon. The assay is described as follows: inhibition of tumour cell growth, NCI panel, 48 h.
In turn, `O=C1Nc2c(ccc(Cl)c2I)C1=O` displayed a TGI of 65.6 µM.
On the same count and under the same terms, to `NC1=NS(=O)(=O)Nc2nc(-c3ccc([N+](=O)[O-])o3)[nH]c21` belongs 36.1 µM.
For the compound `CN(C)C(=S)/N=c1\ss/c(=N\C(=S)N(C)C)n1-c1ccc(Cl)c(Cl)c1`, the TGI was more than 100 µM.
As for `COc1cc2cccc(N=Cc3cccc(OC)c3OC(C)C)c2cc1OC`, the TGI was determined as 57.2 µM.

The test system of a further assay is KM20L2 colon. The assay is described as follows: inhibition of tumour cell growth, NCI panel, 48 h.
`O=C1Nc2c(ccc(Cl)c2I)C1=O` returned a TGI of more than 100 µM.
The same measure, in the same setting: as for `NC1=NS(=O)(=O)Nc2nc(-c3ccc([N+](=O)[O-])o3)[nH]c21`, the figure is 58.6 µM; as for `CN(C)C(=S)/N=c1\ss/c(=N\C(=S)N(C)C)n1-c1ccc(Cl)c(Cl)c1`, more than 100 µM.
Take `COc1cc2cccc(N=Cc3cccc(OC)c3OC(C)C)c2cc1OC`: the TGI was more than 100 µM.

The test system of another assay is LOX IMVI melanoma. Put plainly: inhibition of tumour cell growth, NCI panel, 48 h.
Compound `O=C1Nc2c(ccc(Cl)c2I)C1=O` came in with a TGI of 37 µM.
`NC1=NS(=O)(=O)Nc2nc(-c3ccc([N+](=O)[O-])o3)[nH]c21` had a TGI of 29.4 µM.
On the same count and under the same terms, to `CN(C)C(=S)/N=c1\ss/c(=N\C(=S)N(C)C)n1-c1ccc(Cl)c(Cl)c1` belongs more than 100 µM.

Another assay concerns LXFL 529 NSCLC. The assay is described as follows: inhibition of tumour cell growth, NCI panel, 48 h.
As to `O=C1Nc2c(ccc(Cl)c2I)C1=O`, the TGI was determined as 27.5 µM.
Same read-out and setting: as for `NC1=NS(=O)(=O)Nc2nc(-c3ccc([N+](=O)[O-])o3)[nH]c21`, the figure is 25.7 µM.
The same measure, in the same setting: as for `COc1cc2cccc(N=Cc3cccc(OC)c3OC(C)C)c2cc1OC`, the figure is 31.1 µM.

For the next assay, the system named is M14 melanoma. Put plainly: inhibition of tumour cell growth, NCI panel, 48 h.
As to `O=C1Nc2c(ccc(Cl)c2I)C1=O`, the TGI was found to be 29.4 µM.
`NC1=NS(=O)(=O)Nc2nc(-c3ccc([N+](=O)[O-])o3)[nH]c21`: the TGI is 28.4 µM.
Still for that read-out and setting: to `CN(C)C(=S)/N=c1\ss/c(=N\C(=S)N(C)C)n1-c1ccc(Cl)c(Cl)c1` belongs more than 100 µM.
The same measure, in the same setting: as for `COc1cc2cccc(N=Cc3cccc(OC)c3OC(C)C)c2cc1OC`, the figure is 35.9 µM.

For another assay, the system named is M19-MEL melanoma. Put plainly: inhibition of tumour cell growth, NCI panel, 48 h.
Turning to `O=C1Nc2c(ccc(Cl)c2I)C1=O`, the TGI was 24.1 µM.
On the same count and under the same terms, to `NC1=NS(=O)(=O)Nc2nc(-c3ccc([N+](=O)[O-])o3)[nH]c21` belongs 32.4 µM; to `CN(C)C(=S)/N=c1\ss/c(=N\C(=S)N(C)C)n1-c1ccc(Cl)c(Cl)c1`, more than 100 µM.
The compound `COc1cc2cccc(N=Cc3cccc(OC)c3OC(C)C)c2cc1OC` registered a TGI of 48.2 µM.

Another assay concerns MALME-3M melanoma. The assay is described as follows: inhibition of tumour cell growth, NCI panel, 48 h.
Compound `O=C1Nc2c(ccc(Cl)c2I)C1=O` had a TGI of 28.3 µM.
Same read-out and setting: as for `NC1=NS(=O)(=O)Nc2nc(-c3ccc([N+](=O)[O-])o3)[nH]c21`, the figure is 30.6 µM.
Same read-out and setting: as for `CN(C)C(=S)/N=c1\ss/c(=N\C(=S)N(C)C)n1-c1ccc(Cl)c(Cl)c1`, the figure is more than 100 µM; as for `COc1cc2cccc(N=Cc3cccc(OC)c3OC(C)C)c2cc1OC`, 59.8 µM.

A further assay deals with MOLT-4 leukemia. The assay is described as follows: inhibition of tumour cell growth, NCI panel, 48 h.
`O=C1Nc2c(ccc(Cl)c2I)C1=O` displayed a TGI of 40.1 µM.
Compound `NC1=NS(=O)(=O)Nc2nc(-c3ccc([N+](=O)[O-])o3)[nH]c21` returned a TGI of 41 µM.
The same measure, in the same setting: to `CN(C)C(=S)/N=c1\ss/c(=N\C(=S)N(C)C)n1-c1ccc(Cl)c(Cl)c1` belongs more than 100 µM; to `COc1cc2cccc(N=Cc3cccc(OC)c3OC(C)C)c2cc1OC`, 69.5 µM.
